Experimental data reported in ChEMBL document CHEMBL4483862, “Open-source discovery of chemical leads for next-generation chemoprotective antimalarials” (2018).

Tested on: Plasmodium berghei
Test: Luciferase/luciferin-expressing antifolate-resistant parasites were used to infect a culture of HepG2 cells that were pre-incubated with compounds. Infected hepatocytes emit light due to the luciferase reaction. Assay results are presented as the percent inhibition of light emission compared to control. […]
Format: functional
Details: sporozoite; for IC90: read-out: LUCIFERASE INFECTION ASSAY - IC90

SMILES | IC90 [µM] | further results
CNC(=O)CN(c1cc(OCCOC)c(Cl)cc1Cl)S(=O)(=O)c1ccc(OC)cc1 | 0.87 | IC50 (HEPG2TOX_HILL_SLOPE 3.52, HEPG2TOX_R_SQUARED 0.986, PBLUC_HILL_SLOPE 18.4, PBLUC_R_SQUARED 0.669, read-out: LUCIFERASE INFECTION ASSAY - IC50): 0.771 µM
Clc1cccc(Cl)c1/C=C/c1cc[nH]n1 | > 13.8 | IC50 (HEPG2TOX_HILL_SLOPE 3.46, HEPG2TOX_R_SQUARED 0.979, PBLUC_HILL_SLOPE 12.7, PBLUC_R_SQUARED 0.349, read-out: LUCIFERASE INFECTION ASSAY - IC50): 12 µM
c1ccc(-c2nnc(-c3ccccn3)nc2-c2ccccc2)cc1 | 4.22 | IC50 (HEPG2TOX_HILL_SLOPE 3.54, HEPG2TOX_R_SQUARED 0.979, PBLUC_HILL_SLOPE 15.1, PBLUC_R_SQUARED 0.651, read-out: LUCIFERASE INFECTION ASSAY - IC50): 3.65 µM
OCc1cccc(-c2cnc3ccc(-c4cccc(Oc5ccccc5)c4)nn23)c1 | 4.64 | IC50 (HEPG2TOX_HILL_SLOPE 3.57, HEPG2TOX_R_SQUARED 0.188, PBLUC_HILL_SLOPE 2.99, PBLUC_R_SQUARED 0.337, read-out: LUCIFERASE INFECTION ASSAY - IC50): 2.23 µM
CCN(CC)c1ccc(NC(=O)CCc2ccccc2)cc1C | 6.81 | IC50 (HEPG2TOX_HILL_SLOPE 3.47, HEPG2TOX_R_SQUARED 0.947, PBLUC_HILL_SLOPE 2.46, PBLUC_R_SQUARED 0.836, read-out: LUCIFERASE INFECTION ASSAY - IC50): 2.79 µM
CNc1nc2cnc(Nc3ccccc3)cc2n1Cc1ccco1 | > 10 | IC50 (HEPG2TOX_HILL_SLOPE 3.53, HEPG2TOX_R_SQUARED 0.949, PBLUC_HILL_SLOPE 2.74, PBLUC_R_SQUARED 0.404, read-out: LUCIFERASE INFECTION ASSAY - IC50): 4.93 µM
Nc1c(-c2ccccc2)c(CN2CCN(Cc3ccccc3)CC2)nn1-c1ccc(Cl)cc1 | 8.97 | IC50 (HEPG2TOX_HILL_SLOPE 3.47, HEPG2TOX_R_SQUARED 0.813, PBLUC_HILL_SLOPE 2.28, PBLUC_R_SQUARED 0.79, read-out: LUCIFERASE INFECTION ASSAY - IC50): 3.42 µM
CN(CCCNC(=O)CSc1nnc(-c2c[nH]c3ccccc23)n1C1CC1)c1ccccc1 | 9.32 | IC50 (HEPG2TOX_HILL_SLOPE 3.48, HEPG2TOX_R_SQUARED 0.658, PBLUC_HILL_SLOPE 4.72, PBLUC_R_SQUARED 0.65, read-out: LUCIFERASE INFECTION ASSAY - IC50): 5.85 µM
CC1Cc2cc(S(N)(=O)=O)ccc2N1C(=O)CN1CCCN(c2ccc(C(F)(F)F)cn2)CC1 (centres undefined) | > 10 | IC50 (HEPG2TOX_HILL_SLOPE 3.49, HEPG2TOX_R_SQUARED 0.873, read-out: LUCIFERASE INFECTION ASSAY - IC50): > 10 µM
OCc1cccc(-c2cnc3ccc(-c4ccccc4)nn23)c1 | 7.66 | IC50 (HEPG2TOX_HILL_SLOPE 3.47, HEPG2TOX_R_SQUARED 0.7, PBLUC_HILL_SLOPE 5.19, PBLUC_R_SQUARED 0.0412, read-out: LUCIFERASE INFECTION ASSAY - IC50): 5.02 µM
CCCNS(=O)(=O)c1cccc(C(=O)N2CCN(c3cccc(OC)c3)CC2)c1 | > 10 | IC50 (HEPG2TOX_HILL_SLOPE 3.58, HEPG2TOX_R_SQUARED 0.848, read-out: LUCIFERASE INFECTION ASSAY - IC50): > 10 µM
COc1ccc2cc(C(C)C(=O)N/N=C/c3ccccc3O)ccc2c1 (centres undefined) | > 9.47 | IC50 (HEPG2TOX_HILL_SLOPE 3.47, HEPG2TOX_R_SQUARED 0.909, PBLUC_HILL_SLOPE 4.89, PBLUC_R_SQUARED 0.506, read-out: LUCIFERASE INFECTION ASSAY - IC50): 6.69 µM
CN(CC1COc2ccccc2O1)c1ccc(C#N)cn1 (centres undefined) | > 10 | IC50 (HEPG2TOX_HILL_SLOPE 3.52, HEPG2TOX_R_SQUARED 0.623, PBLUC_HILL_SLOPE 1.89, PBLUC_R_SQUARED 0.914, read-out: LUCIFERASE INFECTION ASSAY - IC50): 5.89 µM
CN(C)CCCNC(=O)c1ccc(-c2cn3c(-c4ccc(Cl)cc4)cnc3cn2)cc1 | 3.76 | IC50 (HEPG2TOX_HILL_SLOPE 3.47, HEPG2TOX_R_SQUARED 0.818, PBLUC_HILL_SLOPE 9.43, PBLUC_R_SQUARED 0.518, read-out: LUCIFERASE INFECTION ASSAY - IC50): 2.98 µM
Fc1ccc(Cc2ccc3ncc(-c4ccncc4)n3n2)cc1 | 9.84 | IC50 (HEPG2TOX_HILL_SLOPE 3.58, HEPG2TOX_R_SQUARED 0.787, PBLUC_HILL_SLOPE 13.1, PBLUC_R_SQUARED 0.419, read-out: LUCIFERASE INFECTION ASSAY - IC50): 8.32 µM
Cc1noc(N)c1-c1nc(-c2cccc(C(F)(F)F)c2)cs1 | > 10.1 | IC50 (HEPG2TOX_HILL_SLOPE 3.53, HEPG2TOX_R_SQUARED 0.703, read-out: LUCIFERASE INFECTION ASSAY - IC50): > 10.1 µM

SMILES | IC90 [µM] | further results
N#Cc1ccccc1OC(=O)Nc1ccc(SC(F)(F)F)cc1 | 1.82 | IC50 (HEPG2TOX_HILL_SLOPE 3.54, HEPG2TOX_R_SQUARED 0.941, PBLUC_HILL_SLOPE 4.88, PBLUC_R_SQUARED 0.753, read-out: LUCIFERASE INFECTION ASSAY - IC50): 1.16 µM
Cc1cc(C(=O)CN(Cc2ccco2)S(=O)(=O)/C=C/c2ccccc2)c(C)n1C | > 10 | IC50 (HEPG2TOX_HILL_SLOPE 3.54, HEPG2TOX_R_SQUARED 0.932, PBLUC_HILL_SLOPE 9.57, PBLUC_R_SQUARED 0.198, read-out: LUCIFERASE INFECTION ASSAY - IC50): 8.84 µM
Cc1cc(C(C)(C)C)cc(C(C)(C)C)[s+]1 | 7.78 | IC50 (HEPG2TOX_HILL_SLOPE 3.48, HEPG2TOX_R_SQUARED 0.99, PBLUC_HILL_SLOPE 2.71, PBLUC_R_SQUARED 0.511, read-out: LUCIFERASE INFECTION ASSAY - IC50): 3.46 µM
COc1cc(Nc2ncc3c(n2)CCN(C(=O)Nc2ccc(F)c(Cl)c2)C3)cc(OC)c1OC | > 6.76 | IC50 (HEPG2TOX_HILL_SLOPE 3.56, HEPG2TOX_R_SQUARED 0.576, PBLUC_HILL_SLOPE 6.46, PBLUC_R_SQUARED 0.101, read-out: LUCIFERASE INFECTION ASSAY - IC50): 5.03 µM
CCN1C(=O)N(C2Cc3ccccc3C2)C(=O)C12CCN(Cc1cc3ccccc3[nH]1)CC2 | > 7.46 | IC50 (HEPG2TOX_HILL_SLOPE 3.47, HEPG2TOX_R_SQUARED 0.984, PBLUC_HILL_SLOPE 2.65, PBLUC_R_SQUARED 0.483, read-out: LUCIFERASE INFECTION ASSAY - IC50): 3.77 µM
O=C(OCc1csc(-c2ccccc2)n1)c1cc([N+](=O)[O-])ccc1N1CCC(Cc2ccccc2)CC1 | > 10 | IC50 (HEPG2TOX_HILL_SLOPE 3.49, HEPG2TOX_R_SQUARED 0.926, PBLUC_HILL_SLOPE 12.2, PBLUC_R_SQUARED 0.465, read-out: LUCIFERASE INFECTION ASSAY - IC50): 8.99 µM
CC(NC(=O)c1nc(-c2ccccc2)n(-c2ccccc2)n1)C12CC3CC(CC(C3)C1)C2 (centres undefined) | 5.28 | IC50 (HEPG2TOX_HILL_SLOPE 3.46, HEPG2TOX_R_SQUARED 0.871, PBLUC_HILL_SLOPE 90.3, PBLUC_R_SQUARED 0.516, read-out: LUCIFERASE INFECTION ASSAY - IC50): 5.15 µM
O=C(Nc1nc2ccccc2s1)N1CC=C(c2c[nH]c3ncccc23)CC1 | > 10 | IC50 (HEPG2TOX_HILL_SLOPE 3.51, HEPG2TOX_R_SQUARED 0.954, PBLUC_HILL_SLOPE 3.11, PBLUC_R_SQUARED 0.433, read-out: LUCIFERASE INFECTION ASSAY - IC50): 6.66 µM
O=c1c(Cl)c(Cl)cnn1-c1ccc(F)c(Cl)c1 | 4.35 | IC50 (HEPG2TOX_HILL_SLOPE 3.48, HEPG2TOX_R_SQUARED 0.867, PBLUC_HILL_SLOPE 16.6, PBLUC_R_SQUARED 0.498, read-out: LUCIFERASE INFECTION ASSAY - IC50): 3.81 µM
COc1ccc(O)c(C(=O)c2c[nH]c(C(=O)N3CCCC3)c2)c1 | > 10 | IC50 (HEPG2TOX_HILL_SLOPE 3.52, HEPG2TOX_R_SQUARED 0.659, PBLUC_HILL_SLOPE 0.979, PBLUC_R_SQUARED 0.275, read-out: LUCIFERASE INFECTION ASSAY - IC50): > 10 µM
OC(COc1ccc(OC(F)(F)F)cc1)CN1CCN(c2nc3ccc(Cl)cc3s2)CC1 (centres undefined) | > 6.76 | IC50 (HEPG2TOX_HILL_SLOPE 3.53, HEPG2TOX_R_SQUARED 0.823, PBLUC_HILL_SLOPE 2.94, PBLUC_R_SQUARED 0.35, read-out: LUCIFERASE INFECTION ASSAY - IC50): 4.19 µM
CC(C)NC(=O)c1c(NC(=O)c2cccc(F)c2)nc2ccccn12 | 7.41 | IC50 (HEPG2TOX_HILL_SLOPE 3.53, HEPG2TOX_R_SQUARED 0.8, PBLUC_HILL_SLOPE 29.8, PBLUC_R_SQUARED 0.0967, read-out: LUCIFERASE INFECTION ASSAY - IC50): 6.88 µM
O=S(=O)(c1ccc(Cl)cc1)c1nc(Nc2ccccc2)sc1Cl | > 10 | IC50 (HEPG2TOX_HILL_SLOPE 3.54, HEPG2TOX_R_SQUARED 0.784, PBLUC_HILL_SLOPE 12.5, PBLUC_R_SQUARED 0.109, read-out: LUCIFERASE INFECTION ASSAY - IC50): 9.24 µM
COC(=O)c1cnc(NC(=O)/C=C/c2ccc([N+](=O)[O-])o2)s1 | > 10 | IC50 (HEPG2TOX_HILL_SLOPE 3.5, HEPG2TOX_R_SQUARED 0.48, read-out: LUCIFERASE INFECTION ASSAY - IC50): > 10 µM
COCCN1COc2c(cc(Cl)c3cccnc23)C1 | 5.37 | IC50 (HEPG2TOX_HILL_SLOPE 3.55, HEPG2TOX_R_SQUARED 0.927, PBLUC_HILL_SLOPE 12, PBLUC_R_SQUARED 0.223, read-out: LUCIFERASE INFECTION ASSAY - IC50): 4.47 µM
Cn1ccc2cc(-c3cnc4cnc(-c5ccc(F)c(Cl)c5)cn34)ccc21 | 3.55 | IC50 (HEPG2TOX_HILL_SLOPE 3.52, HEPG2TOX_R_SQUARED 0.929, PBLUC_HILL_SLOPE 14.4, PBLUC_R_SQUARED 0.566, read-out: LUCIFERASE INFECTION ASSAY - IC50): 3.05 µM
